Results: US11672788B2, “Histone deacetylase inhibitors for immunomodulation in tumor microenvironment” (GREAT NOVEL THERAPEUTICS BIOTECH & MEDICALS CORPORATION, priority 2020, dated 2023)

Assays:
SW48 cells [1] = experiment: Cell cycle arrest by PI flow cytometry; type: cell-based, human; conditions: for Percentage of Cell Cycle Distribution G0/G1 / Percentage of Cell Cycle Distribution G2/M / Percentage of Cell Cycle Distribution S: 72 h; for Cell cycle arrest: SW48, doses of Table 12
Protocol: (§1) A PI/RNase staining assay (BD Bioscience™) was performed to reveal the presence of cell cycle arrest and apoptotic cells after treatment with GNTbm compounds, Chidamide and Entinostat. […] After treatment cells were harvested, fixed with 80% ethanol for 24 h, washed with 1×PBS and stained with PI/RNase for 15 min at room temperature. The cells were then analyzed using Flow Cytometer within 1 h.

[2] = tested on: histone H3 acetylation (AcH3) in SW48 cells; experiment: Western blot of histone H3 acetylation; type: cell-based, human; conditions: SW48, 24 h, FIG. 12c
Protocol: Human breast cancer MDA-MB-231 cells and human colorectal adenocarcinoma SW48 cells were analyzed. MDA-MB-231 and SW48 were obtained from Bioresource Collection and Research Center (BCRC, Taiwan). MDA-MB-231 and SW48 were grown at 37° C. under humidified air supplemented without CO2 in Leibovitz's L-15 (cat. #11415114, Thermo Fisher Scientific) containing 10% heat inactivated fetal calf serum (Thermo Scientific), 1× concentration of MycoZap antibiotics (cat. #VZA-2011, Lonza). Cells were treated with GNTbm compounds series, Chidamide or Entinostat for different time periods or at varied doses. Cells were treated with indicated doses for 24 h or cells were treated with indicated doses for different time periods. Cell pellets were dissolved with RIPA buffer (cat. #20-188, Merck) with protease and phosphatase inhibitors (cat. #K272, BioVision) and clarified by centrifugation. Equal amounts of total protein were resolved by SDS-PAGE and transferred to polyvinylidene fluoride membranes (cat. #1620177, BIO-RAD). Blots were incubated with primary antibodies against β-actin (cat. #sc-47778, Santa Cruz Biotechnology), Histone 3ac (cat. #61637, Active Motif), and HRP secondary antibodies anti-rabbit (ab6721, Abcam) and anti-mouse (sc-2005, Santa Cruz). Blots were developed using the ECL Western Blotting Substrate (cat. #sc-2048, Santa Cruz Biotechnology) Image blots were analyzed with the iBright FL1000 (Thermo Fisher Scientific) imaging systems.

MDA-MB-453 = experiment: In vitro cytotoxicity MTT assay; type: cell-based, human; conditions: Homo sapiens, MDA-MB-453, 72 h, IC50 ± SD
Protocol: (§2) Six different cell lines were used, including human breast cancer cell line MDA-MB-231 (6×10^3), MDA-MB-453 (2.4×10^4), SK-BR-3 (6×10^3), human breast epithelial cell line M10 (6×10^3), human gastric carcinoma NCI-N87 (2.4×10^4), and human colorectal adenocarcinoma SW48 (2.4×10^4), and seeded in a 96 well plate. Cell lines were obtained from Bioresource Collection and Research Center, BCRC, Taiwan. […] After 72 h, MTT assay (Cayman™) was used to determine the cellular viability.

M10 = experiment: In vitro cytotoxicity MTT assay; type: cell-based, human; conditions: Homo sapiens, M10, 72 h, IC50 ± SD
Protocol: as §2

SW48 = experiment: In vitro cytotoxicity MTT assay; type: cell-based, human; conditions: Homo sapiens, SW48, 72 h, IC50 ± SD
Protocol: as §2

MDA-MB-231 = experiment: In vitro cytotoxicity MTT assay; type: cell-based, human; conditions: Homo sapiens, MDA-MB-231, 72 h, IC50 ± SD
Protocol: as §2

NCI-N87 = experiment: In vitro cytotoxicity MTT assay; type: cell-based; conditions: Homo sapiens, 72 h, IC50 ± SD
Protocol: as §2

SW48 cells [3] = experiment: Cell apoptosis (sub-G1) by PI flow cytometry; type: cell-based, human; conditions: 72 h; for Induction of apoptosis: SW48, indicated doses (Table 13)
Protocol: as §1

HDAC1 = HDAC1 (Homo sapiens (Human), UniProt Q13547); experiment: HDACs 1, 2, and 3 enzymatic inhibition (fluorogenic kit, 1 h); type: biochemical; conditions: 37° C.
Protocol: (§3) HDACs assay was performed according to standard Protocols (Fluorgenic HDACs 1, 2, and 3 assay kit, BPS Bioscience™). […] After 1 h, assay developer was added to the samples and the absorbance was read at fluorogenic wavelength. The relative inhibition to HDACs 1, 2, and 3 activities in each sample was determined.

HDAC3 = HDAC3 (Homo sapiens (Human), UniProt O15379); experiment: as above; type: biochemical; conditions: 37° C.
Protocol: as §3

HDAC2 = HDAC2 (Homo sapiens (Human), UniProt Q92769); experiment: as above; type: biochemical; conditions: 37° C.
Protocol: as §3

Saturation solubility = type: physicochemical; conditions: ddH2O, 25° C., 90 minutes; mean ± SD; BDL: Below detection limit
Protocol: Samples of 5 mg of compounds were added to 5 ml volumetric flasks containing ddH2O and shaken at 100 rpm in an incubator at 25° C. for 90 minutes. The resulting suspension was filtered through a 0.22 μm filter. The concentrations of compounds were determined spectrophotometrically at 256 nm. The saturation solubility of each sample was determined in triplicates and the mean value and standard deviation were reported.

HDAC3, sequence (O15379 whole entry): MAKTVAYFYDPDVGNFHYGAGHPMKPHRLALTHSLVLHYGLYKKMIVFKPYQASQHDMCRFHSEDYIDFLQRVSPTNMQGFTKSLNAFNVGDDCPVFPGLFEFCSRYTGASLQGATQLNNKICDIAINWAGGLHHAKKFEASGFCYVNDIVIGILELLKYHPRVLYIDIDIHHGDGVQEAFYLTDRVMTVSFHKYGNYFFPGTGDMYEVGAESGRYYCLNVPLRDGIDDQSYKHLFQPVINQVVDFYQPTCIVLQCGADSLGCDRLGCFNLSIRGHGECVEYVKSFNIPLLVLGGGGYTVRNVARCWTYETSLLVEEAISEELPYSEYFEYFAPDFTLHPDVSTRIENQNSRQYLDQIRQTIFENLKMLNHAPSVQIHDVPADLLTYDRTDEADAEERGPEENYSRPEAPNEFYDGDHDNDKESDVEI
HDAC3, sequence (Q9Y618 395-489 partner): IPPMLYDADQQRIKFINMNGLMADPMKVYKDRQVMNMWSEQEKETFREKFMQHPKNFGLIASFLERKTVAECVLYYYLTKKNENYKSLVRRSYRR
HDAC1, sequence (Q13547 whole entry): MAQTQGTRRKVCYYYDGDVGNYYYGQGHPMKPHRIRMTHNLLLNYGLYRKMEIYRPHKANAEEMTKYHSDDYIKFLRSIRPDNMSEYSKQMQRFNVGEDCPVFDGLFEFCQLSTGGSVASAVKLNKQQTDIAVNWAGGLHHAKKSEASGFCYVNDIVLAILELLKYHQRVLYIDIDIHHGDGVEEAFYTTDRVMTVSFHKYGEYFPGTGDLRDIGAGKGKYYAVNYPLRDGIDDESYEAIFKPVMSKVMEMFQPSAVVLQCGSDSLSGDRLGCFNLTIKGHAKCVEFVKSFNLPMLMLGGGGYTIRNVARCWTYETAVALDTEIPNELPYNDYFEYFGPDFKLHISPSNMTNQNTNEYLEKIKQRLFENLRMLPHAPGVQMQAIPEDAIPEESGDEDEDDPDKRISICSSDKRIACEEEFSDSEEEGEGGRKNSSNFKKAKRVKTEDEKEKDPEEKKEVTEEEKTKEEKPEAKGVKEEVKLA
HDAC2, sequence (Q92769 whole entry): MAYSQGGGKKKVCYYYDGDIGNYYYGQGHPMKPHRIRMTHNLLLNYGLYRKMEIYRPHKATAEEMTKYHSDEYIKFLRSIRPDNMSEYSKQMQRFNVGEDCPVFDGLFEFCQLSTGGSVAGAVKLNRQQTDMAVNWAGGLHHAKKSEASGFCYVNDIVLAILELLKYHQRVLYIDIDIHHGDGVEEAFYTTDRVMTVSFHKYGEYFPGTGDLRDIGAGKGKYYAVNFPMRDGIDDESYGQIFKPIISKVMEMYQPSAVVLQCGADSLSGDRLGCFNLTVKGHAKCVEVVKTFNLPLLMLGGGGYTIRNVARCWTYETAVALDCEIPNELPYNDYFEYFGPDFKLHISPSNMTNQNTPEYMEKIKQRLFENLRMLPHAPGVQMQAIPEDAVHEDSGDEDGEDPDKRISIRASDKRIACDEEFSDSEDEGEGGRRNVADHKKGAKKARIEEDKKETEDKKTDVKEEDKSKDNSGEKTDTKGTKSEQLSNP

Row | SMILES | IC50 (MDA-MB-453) [µM] | IC50 (M10) [µM] | IC50 (SW48) [µM] | IC50 (MDA-MB-231) [µM] | IC50 (NCI-N87) [µM] | IC50 (HDAC1) [µM] | IC50 (HDAC3) [µM] | IC50 (HDAC2) [µM] | also measured
1 | Nc1ccccc1NC(=O)c1ccc(NC(=O)C/C=C/c2cccnc2)cn1 [GNTbm-05, 5-((E)-4-(pyridin-3-yl)but-3-enamido)-N-(2-aminophenyl)pyridine-2-carboxamide] | 1.58 ± 0.003 | 0.43 ± 0.03 | 1.64 ± 0.02 | 1.66 ± 0.02 | 0.28 ± 0.01 | 0.14 ± 0.002 | 0.001 ± 4e-05 | 0.36 ± 0.02 | Percentage of Cell Cycle Distribution G0/G1 (SW48 cells [1]; SW48, 0.125 μM): 61.5%; Percentage of Cell Cycle Distribution G2/M (SW48 cells [1]; SW48, 0.125 μM): 18.7%; Percentage of Cell Cycle Distribution S (SW48 cells [1]; SW48, 0.125 μM): 19.8%; Percentage of Cell Cycle Distribution G0/G1 (SW48 cells [1]; SW48, 0.5 μM): 59.2%; Percentage of Cell Cycle Distribution G2/M (SW48 cells [1]; SW48, 0.5 μM): 22.2%; Percentage of Cell Cycle Distribution S (SW48 cells [1]; SW48, 0.5 μM): 18.6%; Percentage of Cell Cycle Distribution G0/G1 (SW48 cells [1]; SW48, 1 μM): 55.4%; Percentage of Cell Cycle Distribution G2/M (SW48 cells [1]; SW48, 1 μM): 31.8%; Percentage of Cell Cycle Distribution S (SW48 cells [1]; SW48, 1 μM): 12.8%; Percentage of Cell Cycle Distribution G0/G1 (SW48 cells [1]; SW48, 2 μM): 53.6%; Percentage of Cell Cycle Distribution G2/M (SW48 cells [1]; SW48, 2 μM): 34.6%; Percentage of Cell Cycle Distribution S (SW48 cells [1]; SW48, 2 μM): 11.8%; Cell cycle arrest (SW48 cells [1]): significantly induced cell cycle arrest in the G2/M phase in SW48 cells; Histone 3 acetylation expression versus Chidamide [2]: more potent in inducing the histone 3 acetylation expression in SW48 cells than Chidamide; Percentages of Cell Apoptosis (SW48 cells [3]; SW48, 0.125 μM): 9.0%; Percentages of Cell Apoptosis (SW48 cells [3]; SW48, 0.5 μM): 17.9%; Percentages of Cell Apoptosis (SW48 cells [3]; SW48, 1 μM): 27.2%; Percentages of Cell Apoptosis (SW48 cells [3]; SW48, 2 μM): 42.4%; Induction of apoptosis (SW48 cells [3]): potent in inducing apoptosis in SW48 cells
2 | Cc1ccc(/C=C/CC(=O)Nc2ccc(C(=O)Nc3ccccc3N)nc2)cn1 [GNTbm-06, 5-((E)-4-(6-methylpyridin-3-yl)but-3-enamido)-N-(2-aminophenyl)pyridine-2-carboxamide] | 1.59 ± 0.01 | 1.95 ± 0.03 | 2.32 ± 0.08 | 3.87 ± 0.7 | 2.2 ± 0.03 | 0.1 ± 0.02 | 0.009 ± 0.01 | 0.39 ± 0.02 | Saturation Solubility (Saturation solubility): BDL
3 | Cc1ccc(CCCC(=O)Nc2ccc(C(=O)Nc3ccc(F)cc3N)nc2)cn1 [GNTbm-08, 5-(4-(6-methylpyridin-3-yl)butanamido)-N-(2-amino-4-fluorophenyl)pyridine-2-carboxamide] | 3.78 ± 0.5 | 20.8 ± 0.14 | 18.4 ± 1 | > 50 | 15.5 ± 1.7 | 0.37 ± 0.31 | 0.001 ± 2e-05 | 1.54 ± 0.28 | 
4 | Nc1cc(C(F)(F)F)ccc1NC(=O)c1ccc(NC(=O)C/C=C/c2cccnc2)cn1 [GNTbm-11, 5-((E)-4-(pyridin-3-yl)but-3-enamido)-N-(2-amino-4-(trifluoromethyl)phenyl)pyridine-2-carboxamide] | 2.28 ± 0.06 | 1.65 ± 0.2 | 2.6 ± 0.45 | 1.71 ± 0.04 | 1.87 ± 0.04 | > 20 | 0.001 | > 20 | 
5 | Cc1ccc(/C=C/CC(=O)Nc2ccc(C(=O)Nc3ccc(C(F)(F)F)cc3N)nc2)cn1 [GNTbm-12, 5-((E)-4-(6-methylpyridin-3-yl)but-3-enamido)-N-(2-amino-4-(trifluoromethyl)phenyl)pyridine-2-carboxamide] | 15.8 ± 3.9 | 38.5 ± 5.9 | > 50 | > 50 | > 50 | > 20 | > 20 | > 20 | 
6 | Cc1ccc(CCCC(=O)Nc2ccc(C(=O)Nc3ccccc3N)nc2)cn1 [GNTbm-19, 5-(4-(6-methylpyridin-3-yl)butanamido)-N-(2-aminophenyl)pyridine-2-carboxamide] | 1.81 ± 0.02 | 2.89 ± 0.12 | 8.73 ± 0.24 | 5.69 ± 1.7 | 4.3 ± 1.4 | 0.48 ± 0.03 | 2.98 ± 0.08 | 1.42 ± 0.19 | 
7 | Cc1ccc(CCCC(=O)Nc2ccc(C(=O)Nc3ccc(C(F)(F)F)cc3N)nc2)cn1 [GNTbm-25, 5-(4-(6-methylpyridin-3-yl)butanamido)-N-(2-amino-4-(trifluoromethyl)phenyl)pyridine-2-carboxamide] | 19.1 ± 2.07 | > 50 | > 50 | > 50 | > 50 | > 20 | > 20 | > 20 | 
8 | Nc1cc(C(F)(F)F)ccc1NC(=O)c1ccc(NC(=O)C/C=C/c2cccnc2)cc1 [GNTbm-33, 4-((E)-4-(pyridin-3-yl)but-3-enamido)-N-(2-amino-4-(trifluoromethyl)phenyl)benzamide] | 1.94 ± 0.22 | 2.01 ± 0.09 | 1.79 ± 0.03 | 1.62 ± 0.02 | 1.75 ± 0.02 | > 20 | > 20 | > 20 | 
9 | Nc1cc(F)ccc1NC(=O)c1ccc(NC(=O)CCCc2cccnc2)cc1 [GNTbm-37, 4-(4-(pyridin-3-yl)butanamido)-N-(2-amino-4-fluorophenyl)benzamide] | 4.89 ± 0.34 | 8.85 ± 0.59 | 21.3 ± 1.64 | 8.07 ± 0.54 | 10.7 ± 0.6 | 9.04 ± 0.6 | 1.74 ± 0.29 | 3.15 ± 0.31 | 
10 | Nc1ccccc1NC(=O)c1ccc(NC(=O)C/C=C/c2cccnc2)cc1 [GNTbm-38, 4-((E)-4-(pyridin-3-yl)but-3-enamido)-N-(2-aminophenyl)benzamide] | 1.67 ± 0.01 | 1.99 ± 0.06 | 1.64 ± 0.005 | 3.55 ± 0.45 | 0.42 ± 0.08 | 0.69 ± 0.03 | 1.2 ± 0.01 | 0.28 ± 0.01 | Percentage of Cell Cycle Distribution G0/G1 (SW48 cells [1]; SW48, 0.125 μM): 63.3%; Percentage of Cell Cycle Distribution G2/M (SW48 cells [1]; SW48, 0.125 μM): 17.4%; Percentage of Cell Cycle Distribution S (SW48 cells [1]; SW48, 0.125 μM): 19.3%; Percentage of Cell Cycle Distribution G0/G1 (SW48 cells [1]; SW48, 0.5 μM): 61.8%; Percentage of Cell Cycle Distribution G2/M (SW48 cells [1]; SW48, 0.5 μM): 27.8%; Percentage of Cell Cycle Distribution S (SW48 cells [1]; SW48, 0.5 μM): 10.4%; Percentage of Cell Cycle Distribution G0/G1 (SW48 cells [1]; SW48, 1 μM): 57.7%; Percentage of Cell Cycle Distribution G2/M (SW48 cells [1]; SW48, 1 μM): 29.8%; Percentage of Cell Cycle Distribution S (SW48 cells [1]; SW48, 1 μM): 12.5%; Percentage of Cell Cycle Distribution G0/G1 (SW48 cells [1]; SW48, 2 μM): 53.9%; Percentage of Cell Cycle Distribution G2/M (SW48 cells [1]; SW48, 2 μM): 32.5%; Percentage of Cell Cycle Distribution S (SW48 cells [1]; SW48, 2 μM): 13.6%; Cell cycle arrest (SW48 cells [1]): significantly induced cell cycle arrest in the G2/M phase in SW48 cells; Histone 3 acetylation expression versus Chidamide [2]: more potent in inducing the histone 3 acetylation expression in SW48 cells than Chidamide; Percentages of Cell Apoptosis (SW48 cells [3]; SW48, 0.125 μM): 8.5%; Percentages of Cell Apoptosis (SW48 cells [3]; SW48, 0.5 μM): 18.3%; Percentages of Cell Apoptosis (SW48 cells [3]; SW48, 1 μM): 24.4%; Percentages of Cell Apoptosis (SW48 cells [3]; SW48, 2 μM): 37.3%; Induction of apoptosis (SW48 cells [3]): potent in inducing apoptosis in SW48 cells
